# Like-named read-outs stand apart in the source and are kept apart here.
# How the values were obtained:
# acetylcholine [1] = test: Test Procedure 7: acetylcholine-induced bronchoconstriction in anesthetized guinea pigs; format: in vivo, guinea pig; conditions: 100 mg/kg p.o.
# Procedure: Guinea pigs, weighing 250-350 g were anesthetized with 1.5 g/kg i.p. of urethane and prepared for measurements of resistance to pulmonary inflation using a slightly modified Konzett-Rossler preparation (see Test Procedure 2). Histamine phosphate (5 μg/kg as base) was injected four times at 5 minute intervals in order to ascertain that the maximum bronchoconstrictor responsiveness has been obtained. Acetylcholine was injected intravenously at […] 5 minutes following the last injection of histamine and the increase in intratracheal pressure was recorded. Compound b or aminophylline (100 mg/kg p.o.) or the control vehicle were administered to five guinea pigs each, 1 hour before the injection of acetylcholine (1/2 hour before the anesthesia).
# serotonin [2] = test: Test Procedure 6: serotonin-induced bronchoconstriction in anesthetized guinea pigs; format: in vivo, guinea pig; conditions: iv 5.0 mg/kg; P 0.01
# Procedure: Guinea pigs, weighing 275-340 g, were anesthetized and prepared for measurements of resistance to pulmonary inflation using a slightly modified Konzett-Rossler method (see Test Procedure 2). All guinea pigs received 0.1 mg/kg of propranolol iv and 5 minutes later, 50 mcg/kg of serotonin (creatinine complex) iv. Compound b or cyproheptadine were administered iv just before the injection of propranolol at 50 or 5 mg/kg, respectively. Compound b was prepared as a 5% solution in 5% N-methylglucamine and cyproheptadine as a 0.25% aqueous solution.
# bradykinin [3] = tested on: bradykinin
# Procedure: Antagonism of bradykinin-induced bronchoconstriction in guinea pigs was determined by measuring increases in resistance to artificial pulmonary inflation (Konzett-Rossler preparation). […] Due to large variations in bronchoconstricting responses among individual guinea pigs, each guinea pig serves as its own control and was challenged with bradykinin twice. The second response to bradykinin was expressed as percent of the first response to bradykinin. […] All guinea pigs having a first bradykinin response of less than 12 mm Hg were rejected as poor responders. […] In order to augment the bronchoconstrictor response, each guinea pig received 100 mcg propranolol/kg, iv, 5 minutes before the first injection of bradykinin (30 mcg/kg, iv). […] Five minutes after the injection of a test compound the guinea pigs received the second injection of bradykinin and the peak of the response determined. The effects of both test compounds were expressed as % inhibition of bradykinin-induced increase in bronchial resistance to forced inflation, as compared to the levels of bronchial resistance following iv administration of their respective solvent controls.
# SRS-A [4] = test: Test Procedure 1: antagonism of SRS-A-induced bronchoconstriction in unanesthetized guinea pigs; format: in vivo, guinea pig; conditions: for ED50: Cavia porcellus, po, read-out: AED50; for ED50 / Potency (Phenylbutazone = 1) (95% confidence limits): 1 hour before SRS-A; for Potency (Phenylbutazone = 1) (95% confidence limits): p.o.
# Procedure: The test compounds were administered orally to four guinea pigs/group 1 hour before the SRS-A challenge. The test compounds were prepared as suspensions in 1% gum tragacanth. Bronchoconstriction was graded 1+ to 3+ according to severity (1+ denoted restlessness and slight thoracic dyspnea, 2+ denoted moderate thoracic dyspnea and 3+ denoted convulsive dyspnea, regardless of whether the guinea pig died of asphyxiation or recovered).
# SRS-A [5] = test: Test Procedure 3: SRS-A-induced increase in resistance to pulmonary inflation in anesthetized cats; format: in vivo, cat
# Procedure: The trachea of each cat was cannulated, and the cats were artificially respired at 15 strokes/minute with a stroke volume of 22 ml/kg. A side-arm of the intratracheal cannula was connected to a Statham transducer, and the intratracheal pressure was recorded continuously on a polygraph. One femoral vein was cannulated in all cats receiving intravenous administration of drugs. In addition, most of the cats were cannulated through the femoral artery; this cannula was attached to another Statham transducer, and the blood pressure of these cats recorded. All cats received 1.0 mg/kg of propranolol and 0.2 mg/kg of thenyldiamine intravenously 3 minutes before iv injection of SRS-A. SRS-A was obtained from rat peritoneal cavities as described previously in Test Procedure 1. Each pool of rat ip fluid containing SRS-A was dose-ranged and a dose selected that was estimated to cause an average increase in intrapulmonary resistance to inflation in control cats by 4-6 mmHg. Test dose volumes ranged from 1.0 to 2.0 ml/kg, iv. […] Both test compounds and the sodium hydroxide vehicle were injected iv 5 minutes before the injections of SRS-A (2 minutes before the injection of propranolol and thenyldiamine).
# SRS-A [6] = conditions: guinea pigs; cited from earlier work
# SRS-A [7] = test: Test Procedure 3: SRS-A-induced increase in resistance to pulmonary inflation in anesthetized cats; format: in vivo, cat; remark: listed apart in the source
# serotonin [8] = conditions: guinea pig, in vivo; cited from earlier work
# SRS-A [9] = test: Test Procedure 2: inhibition of SRS-A-induced bronchoconstriction in anesthetized guinea pigs (Konzett-Rossler); format: in vivo, guinea pig; conditions: for inhibition of SRS-A-induced increases in resistance to inflation: intravenous
# Source text: SRS-A was harvested as described in Test Procedure 1 described hereinabove. A slightly modified Konzett-Rossler preparation [Arch. […] Guinea pigs weighing 350 to 450 g were anesthetized ip with 1.5 g/kg urethane. The jugular vein and trachea were cannulated and the guinea pigs were artificially respired at a rate of 40 strokes/minute. […] A side arm of the inflationary air cannula was connected to a pressure transducer and resistance to pulmonary inflation continuously recorded. […] Studies with SRS-A commenced after each guinea pig had attained maximum bronchoconstrictor response to histamine. […] The effects of the test compounds were studied by measuring SRS-A-induced bronchoconstriction side-by-side in two guinea pigs, one medicated and one control. Subsequent medicated/control pairs were alternated on two respiratory pumps. In this manner, the gradual decomposition of SRS-A and differences between the two pump/recorder systems, if any, were controlled. The dose (volume) of each sample of SRS-A was adjusted in each pair to keep the peaks of increases in bronchial resistance in control guinea pigs within 13 to 40 mmHg. Bronchoconstriction following injection of SRS-A was measured two ways; as the peak increase in resistance to inflation and, in view of the occasional irregular bronchoconstriction response curves following injection of SRS-A, as the sum of increases in bronchoconstriction over 10 minutes (pressure/time units). Pressure/time units were calculated by measuring the area under the curve of inflationary resistance where ordinates were set at 10 mm of pen excursion/10 mm pressure Hg and the abscissas were set at 15 mm of paper travel/minute. […] SRS-A-induced bronchoconstriction (increase in resistance) was calculated as the area under the curve and over the normal base line of resistance to inflation. […] The effects of the test compounds upon SRS-A-induced bronchoconstriction were expressed as ratios of the peaks and as ratios of the pressure/time units between the paired medicated and control guinea pigs. The consistency of paired responses to SRS-A in nonmedicated guinea pigs was determined in the same manner, by alternating the ratios of the results of guinea pigs on pumps one and two. […] SRS-A was injected 5 minutes after these latter injections. Compound b was prepared as a solution in 2% N-methylglucamine and used within 3 hours. […] Control guinea pigs received injections of the respective solvent vehicles. In order to compare the activities of compound b following iv and po routes of administration, compound b was also administered orally. […] Control guinea pigs received 2% N-methylglucamine. Fifteen minutes later, the guinea pigs were anesthetized, cannulated, and prepared for injections of SRS-A as described. The procedure was timed so that SRS-A was injected 1 hour after the oral administration of compound b. In a separate experiment, using the same methodology, the duration anti-SRS-A activity of compound b was determined after oral administration. Compound b was finely ground in a tissue homogenizer and prepared as a suspension in 0.5% gum tragacanth. A dose of 10 mg/kg was administered and anti-SRS-A effect studied at 1, 4 and 7 hr postmedication. The ratios of peak increases in intratracheal pressure between paired medicated and control guinea pigs was used to calculate percent inhibition.
# bradykinin [10] = conditions: guinea pigs; cited from earlier work
# acetylcholine [11] = conditions: guinea pig, in vivo; cited from earlier work
smiles,measurement,setting,value
"Cn1c(=O)c2[nH]cnc2n(C)c1=O [Aminophylline, aminophylline, reference compound]",% Inhibition,acetylcholine [1],70%
same,"Peak Increase in Intracheal Pressure, mm Hg",acetylcholine [1],7 ± 1 mm Hg
same,effect against acetylcholine-induced bronchoconstriction,acetylcholine [1],inhibition of acetylcholine responses
"CN1CCC(=C2c3ccccc3C=Cc3ccccc32)CC1 [Cyproheptadine, cyproheptadine, reference compound]",Increase in Resistance (mm Hg),serotonin [2],5 ± 1 mm Hg
same,Inhibition %,serotonin [2],89%
CCCCC1C(=O)N(c2ccccc2)N(c2ccccc2)C1=O [Na Phenylbutazone],% Inhibition,bradykinin [3]; iv 1.0 mg/kg,20%
same,Average Increase In Bronchial Resistance (2nd Response in % of 1st Response ± S.E.),bradykinin [3]; iv 1.0 mg/kg,64 ± 12%
same,% Inhibition,bradykinin [3]; iv 3.3 mg/kg,50%
same,Average Increase In Bronchial Resistance (2nd Response in % of 1st Response ± S.E.),bradykinin [3]; iv 3.3 mg/kg,40 ± 9%
same,% Inhibition,bradykinin [3]; iv 10.0 mg/kg,56%
same,Average Increase In Bronchial Resistance (2nd Response in % of 1st Response ± S.E.),bradykinin [3]; iv 10.0 mg/kg,35 ± 11%
same,% Inhibition,bradykinin [3]; iv 33.0 mg/kg,50%
same,Average Increase In Bronchial Resistance (2nd Response in % of 1st Response ± S.E.),bradykinin [3]; iv 33.0 mg/kg,40 ± 7%
"CCCCC1C(=O)N(c2ccccc2)N(c2ccccc2)C1=O [Phenylbutazone, phenylbutazone, reference compound]","Incidence of Severe Bronchospasms, %",SRS-A [4]; 1.6 mg/kg p.o.,62%
same,"Incidence of Severe Bronchospasms, No. Bronchosp./No. Tested",SRS-A [4]; 1.6 mg/kg p.o.,47/77
same,"Incidence of Severe Bronchospasms, %",SRS-A [4]; 6.2 mg/kg p.o.,34%
same,"Incidence of Severe Bronchospasms, No. Bronchosp./No. Tested",SRS-A [4]; 6.2 mg/kg p.o.,29/86
same,"Incidence of Severe Bronchospasms, %",SRS-A [4]; 25 mg/kg p.o.,15%
same,"Incidence of Severe Bronchospasms, No. Bronchosp./No. Tested",SRS-A [4]; 25 mg/kg p.o.,21/147
same,"Incidence of Severe Bronchospasms, %",SRS-A [4]; 100 mg/kg p.o.,4%
same,"Incidence of Severe Bronchospasms, No. Bronchosp./No. Tested",SRS-A [4]; 100 mg/kg p.o.,2/46
same,% Inhibition,SRS-A [5]; intravenous 10.1 mg/kg,21%
same,"Max. Increase in Resistance to Pulm. Inflation, mm Hg ± S.E.",SRS-A [5]; intravenous 10.1 mg/kg,4.7 ± 1.5 mm Hg
same,inhibition of SRS-A-induced increase in resistance to inflation,SRS-A [5]; intravenous 33 mg/kg,complete inhibition
same,% Inhibition,SRS-A [5]; intravenous 33.0 mg/kg,100%
same,effect on SRS-A-induced bronchoconstriction,SRS-A [6],inhibit
same,ED50,"SRS-A [7]; Felis catus, 5 min, intravenous, read-out: iv AED50",16 mg/kg
same,"Max. Increase in Resistance to Pulm. Inflation, mm Hg ± S.E.",SRS-A [7]; intravenous 33.0 mg/kg,0 mm Hg
same,% Inhibition,SRS-A [7]; oral 10.0 mg/kg,25%
same,"Max. Increase in Resistance to Pulm. Inflation, mm Hg ± S.E.",SRS-A [7]; oral 10.0 mg/kg,3.0 ± 0.9 mm Hg
same,% Inhibition,SRS-A [7]; oral 33.0 mg/kg,98%
same,"Max. Increase in Resistance to Pulm. Inflation, mm Hg ± S.E.",SRS-A [7]; oral 33.0 mg/kg,0.1 ± 0.1 mm Hg
same,effect on serotonin-induced bronchoconstriction,serotonin [8],ineffective
same,% Inhibition (peak increase in resistance),SRS-A [9]; i.v. 1.0 mg/kg,0%
same,% Inhibition (sum of increase in resistance over 10 min),SRS-A [9]; i.v. 1.0 mg/kg,0%
same,% Inhibition (peak increase in resistance),SRS-A [9]; i.v. 3.3 mg/kg,59%
same,% Inhibition (sum of increase in resistance over 10 min),SRS-A [9]; i.v. 3.3 mg/kg,56%
same,% Inhibition (peak increase in resistance),SRS-A [9]; i.v. 10 mg/kg,72%
same,% Inhibition (sum of increase in resistance over 10 min),SRS-A [9]; i.v. 10 mg/kg,81%
same,% Inhibition (peak increase in resistance),SRS-A [9]; i.v. 33 mg/kg,89%
same,% Inhibition (sum of increase in resistance over 10 min),SRS-A [9]; i.v. 33 mg/kg,90%
same,inhibition of SRS-A-induced increases in resistance to inflation,SRS-A [9],inhibited SRS-A-induced increases in resistance to inflation in a dose-related manner
same,inhibition of SRS-A-induced increases in resistance to inflation,SRS-A [9]; 10 and 33 mg/kg,nearly complete inhibition
same,inhibition of bradykinin-induced bronchoconstriction,"bradykinin [3]; iv 33 mg/kg, remaining five guinea pigs",further dose-related inhibition
same,inhibition of bradykinin-induced increase in bronchial resistance,bradykinin [3]; iv 3.3 and 10 mg/kg,significantly inhibited
same,effect on bradykinin-induced bronchoconstriction,bradykinin [10],inhibit
same,effect on acetylcholine-induced bronchoconstriction,acetylcholine [11],ineffective
"O=C(O)C1CCc2c(c3ccccc3n2C(=O)c2ccccc2)C1 (stereo not shown) [a, 9-benzoyl-1,2,3,4-tetrahydrocarbazole-3-carboxylic acid]",ED50,SRS-A [4],10 mg/kg
same,Potency (Phenylbutazone = 1) (95% confidence limits),SRS-A [4],1.1 (0.53.8)
CC(=O)Oc1ccccc1C(=O)O [aspirin],effect on SRS-A-induced bronchoconstriction,SRS-A [6],inhibit
same,effect on serotonin-induced bronchoconstriction,serotonin [8],ineffective
same,effect on bradykinin-induced bronchoconstriction,bradykinin [10],inhibit
same,effect on acetylcholine-induced bronchoconstriction,acetylcholine [11],ineffective
"O=C(O)C1CCCc2c1c1ccccc1n2C(=O)c1ccccc1 (stereo not shown) [c, 9-benzoyl-1,2,3,4-tetrahydrocarbazole-4-carboxylic acid]",ED50,SRS-A [4],0.3 mg/kg
same,Potency (Phenylbutazone = 1) (95% confidence limits),SRS-A [4],16 (6.9-37)
"Cc1ccc(C(=O)n2c3c(c4ccccc42)C(C(=O)O)CCC3)cc1 (stereo not shown) [d, 9-(4-toluoyl)-1,2,3,4-tetrahydrocarbazole-4-carboxylic acid]",ED50,SRS-A [4],5 mg/kg
same,Potency (Phenylbutazone = 1) (95% confidence limits),SRS-A [4],1.7 (0.6-6.8)
"COc1ccc2c(c1)c1c(n2C(=O)c2ccccc2)CCCC1C(=O)O (stereo not shown) [e, 9-benzoyl-6-methoxy-1,2,3,4-tetrahydrocarbazole-4-carboxylic acid]",ED50,SRS-A [4],1 mg/kg
same,Potency (Phenylbutazone = 1) (95% confidence limits),SRS-A [4],18 (5.0-86)
"Cc1ccc2c(c1)c1c(n2C(=O)c2ccccc2)CCCC1C(=O)O (stereo not shown) [f, 9-benzoyl-6-methyl-1,2,3,4-tetrahydrocarbazole-4-carboxylic acid]",ED50,SRS-A [4],1.7 mg/kg
same,Potency (Phenylbutazone = 1) (95% confidence limits),SRS-A [4],6.7 (3.2-16)

# — patent US4174402A, “Method for the prophylaxis of SRS-A-induced symptoms” (priority 1978, dated 1979)
